Here are results for one compound from US11197863B2, “Inhibitors of polo-like kinase 4 (PLK4) for treating pediatric embryonal tumors” (ANN AND ROBERT H. LURIE CHILDREN'S HOSPITAL OF CHICAGO, priority 2017, dated 2021).

The test system of assay [1] is DAOY and D283 cells. Briefly: MTT proliferation assay, MB cell lines. It counts as cell-based, human. Conditions: 72 hours of treatment vs 0.1% DMSO. How it is done:
To evaluate cell proliferation, we used TACS MTT Cell Proliferation Assays (Trevigen, USA). We plated 2×10^3 cells on each well of a 96-well plate and the absorbance was measured after 48 and 72 hr at concentrations of 10, 50, 100, 200, and 500 nM. Each experiment was performed in triplicates.
For proliferation assay DAOY was plated with 5×10^4 cells per well and D283 was plated with 5×10^5 cells per well.
Background: Formazan colour is commonly taken as a measure of viable cells.

Assay [2] concerns RT and MB cell lines. Briefly: Cell cycle analysis by flow cytometry (polyploidy). It counts as cell-based, human. Conditions: multiple RT and MB cell lines. How it is done:
Cell cycle evaluation was performed by staining the cells with PI (Thermo Fisher Scientific, USA) according to manufacturer's instructions. […] Data was analyzed using Modfit LT from Verity Software House. Experiments were performed in triplicates.
(In general: In flow cytometry, cells or beads pass a laser one at a time.)

For `COc1ccc2c(c1)[C@]1(C[C@H]1c1ccc3c(/C=C/c4ccc(CN5C[C@@H](C)O[C@@H](C)C5)cc4)n[nH]c3c1)C(=O)N2` [CFI-400945], the “cell proliferation (MTT)” value in assay [1] is recorded as “significantly decreased proliferation”. The compound further showed a degree of polyploidy in assay [2] above 8 N.
